Assay results from PMC5777239 (Science signaling, 2017).

Tests used:
[1] = target: RXR alpha LBD-GST; test: FRET or BRET
[2] = system: RXRA (Gal4-RXRA reporter); test: Gal4-RXRA UAS-GFP Kit+ reporter cells treated with plasma from treated mice; format: in vivo, mouse; settings: Kit+ cells transduced with Gal4-RXRA, plasma from mice exposed to the agent
[3] = system: RXRA (Gal4-RXRA reporter); format: in vivo, mouse; settings: for proportion of GFP+mCherry+ cells in total bone marrow cells / single cell abundance of GFP, mean fluorescence intensity (MFI): Gal4-RXRA transplanted mice; for proportion of GFP+mCherry+ cells in total bone marrow cells: compared to mice without treatment; for single cell abundance of GFP, mean fluorescence intensity (MFI): whole bone marrow cells
[4] = system: mouse hematopoietic cells; format: in vivo; settings: after PHZ treatment, mass spectrometry
[5] = target: T1, RXRA (Homo sapiens, UniProt P19793); settings: cited from earlier work
T1 sequence (P19793 1-462): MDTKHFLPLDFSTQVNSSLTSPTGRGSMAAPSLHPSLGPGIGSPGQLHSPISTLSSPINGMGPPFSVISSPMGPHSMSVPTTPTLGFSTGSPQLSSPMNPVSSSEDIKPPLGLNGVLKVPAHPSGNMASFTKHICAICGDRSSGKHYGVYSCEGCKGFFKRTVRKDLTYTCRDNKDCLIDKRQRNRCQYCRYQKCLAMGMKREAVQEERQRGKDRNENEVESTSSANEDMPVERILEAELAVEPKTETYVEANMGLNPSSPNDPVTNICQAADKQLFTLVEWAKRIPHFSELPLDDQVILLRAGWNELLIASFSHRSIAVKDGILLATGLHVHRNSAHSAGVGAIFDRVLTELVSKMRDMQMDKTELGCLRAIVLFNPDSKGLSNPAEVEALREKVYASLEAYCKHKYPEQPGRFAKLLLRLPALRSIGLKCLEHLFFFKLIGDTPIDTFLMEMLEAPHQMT

[6] = target: T2, Flag-Gal4 DBD-RXRA LBD (Homo sapiens, UniProt P19793); format: binding; settings: 293T-FXP cells treated with serum up to 24 hours
T2 sequence (P19793 227-458 limits assumed): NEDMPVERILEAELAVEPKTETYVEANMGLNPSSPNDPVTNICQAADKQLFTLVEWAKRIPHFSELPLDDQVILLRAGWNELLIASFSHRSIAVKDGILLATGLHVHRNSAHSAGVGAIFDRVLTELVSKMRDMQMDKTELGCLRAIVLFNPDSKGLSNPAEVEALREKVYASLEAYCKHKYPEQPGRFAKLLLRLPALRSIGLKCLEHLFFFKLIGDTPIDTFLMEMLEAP

[7] = target: T3, RXR alpha LBD-GST (Homo sapiens, UniProt P19793); test: LanthaScreen TR-FRET Retinoic X Receptor alpha Coactivator assay; format: biochemical
T3 sequence (P19793 227-458 limits assumed): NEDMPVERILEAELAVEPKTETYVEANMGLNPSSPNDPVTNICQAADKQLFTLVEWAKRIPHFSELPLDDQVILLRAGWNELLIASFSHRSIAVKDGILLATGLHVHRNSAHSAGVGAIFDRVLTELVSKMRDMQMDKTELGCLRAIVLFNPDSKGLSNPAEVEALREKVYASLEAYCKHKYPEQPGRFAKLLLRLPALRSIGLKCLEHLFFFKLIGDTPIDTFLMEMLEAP

[8] = target: T1, RXRA; test: DR1x3-TK-Luc luciferase reporter in 293T cells with full-length RXRA; format: cell-based; settings: 40 hour incubation
[9] = target: T4, RXRA (Gal4-DBD fused to RXRA-LBD) (Homo sapiens, UniProt P19793); format: cell-based, mouse; settings: primary UAS-GFP Kit+ cells transduced with Gal4-RXRA; synthesized fatty acids
T4 sequence (P19793 227-458 limits assumed): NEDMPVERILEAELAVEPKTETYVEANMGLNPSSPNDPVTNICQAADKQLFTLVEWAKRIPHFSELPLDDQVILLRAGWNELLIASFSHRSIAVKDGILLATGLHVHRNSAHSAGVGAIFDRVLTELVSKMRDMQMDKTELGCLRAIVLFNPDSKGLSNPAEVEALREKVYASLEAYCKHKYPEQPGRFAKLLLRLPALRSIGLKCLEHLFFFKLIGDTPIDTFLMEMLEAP

Fluorescein-PGC1α peptide
EC50 of the ligand C24:5 for induced binding of the peptide [1]: 0.094 µM | EC50 of the ligand DHA for induced binding of the peptide [1]: 0.086 µM

O=c1[nH]cc(F)c(=O)[nH]1 [5-FU, 5-fluoruracil]
UAS-GFP reporter output with plasma from treated mice [2]: did not observe an increase

NNc1ccccc1 [PHZ, phenylhydrazine]
proportion of GFP+mCherry+ cells in total bone marrow cells [3]: increase | single cell abundance of GFP, mean fluorescence intensity (MFI) [3]: increased | WBC peak following treatment ([3]; granulopoiesis following PHZ treatment): 18-22,000 /μl | UAS-GFP reporter output with plasma from treated mice [2]: increased | concentrations of fatty acids C24:4 and C24:5 in bone marrow cells [4]: increased two-fold | concentrations of fatty acids C24:4 and C24:5 in peripheral blood cells [4]: increased three-fold

CC/C=C\C/C=C\C/C=C\C/C=C\C/C=C\CCCCCC(=O)O [DPA, docosapentaenoic acid]
activation of RXRA in vitro (luciferase reporter) [5]: activate RXRA in vitro

CCCCC/C=C\C/C=C\C/C=C\C/C=C\CCCC(=O)O [AA, arachidonic acid]
activation of RXRA in vitro (luciferase reporter) [5]: activate RXRA in vitro

CC/C=C\C/C=C\C/C=C\C/C=C\C/C=C\C/C=C\CCC(=O)O [DHA, docosahexaenoic acid]
binding to Flag-Gal4-RXRA in pull-down (MS) [6]: bound to RXRA in a time-dependent manner | activation of RXRA in vitro (luciferase reporter) [5]: activate RXRA in vitro

CC/C=C\C/C=C\C/C=C\C/C=C\C/C=C\CCCCCCCC(=O)O [C24:5, (9Z, 12Z, 15Z, 18Z, 21Z)-tetracosa-9,12,15,18,21-pentaenoic acid]
binding of PGC1 and D22 co-activator peptides (TR-FRET) [7]: induced dose-dependent binding of both PGC1 and D22 peptides | activation of DR1-luciferase reporter [8]: could activate a DR1-luciferase reporter | binding to Flag-Gal4-RXRA in pull-down (MS) [6]: bound to RXRA in a time-dependent manner

CC/C=C\C/C=C\C/C=C\C/C=C\C/C=C\CCCCCCCC(=O)O [C24:4, (9Z, 12Z, 15Z, 18Z, 21Z)-tetracosa-9,12,15,18,21-tetraenoic acid]
activation of the GFP reporter [9]: did not activate the GFP reporter | binding of PGC1 and D22 co-activator peptides (TR-FRET) [7]: did not lead to binding of either PGC1 or D22 | binding to Flag-Gal4-RXRA in pull-down (MS) [6]: bound to RXRA in a time-dependent manner

B1: granulocyte colony stimulating factor (protein, UniProt P09919 31-207, looked up)
Granulocyte …: TPLGPASSLPQSFLLKCLEQVRKIQGDGAALQEKLVSECATYKLCHPEELVLLGHSLGIPWAPLSSCPSQALQLAGCLSQLHSGLFLYQGLLQALEGISPELGPTLDTLQLDVADFATTIWQQMEELGMAPALQPTQGAMPAFASAFQRRAGGVLVASHLQSFLEVSYRVLRHLAQP
proportion of GFP+mCherry+ cells in total bone marrow cells [3]: increase | single cell abundance of GFP, mean fluorescence intensity (MFI) [3]: increased | UAS-GFP reporter output with plasma from treated mice [2]: increased
